# Target: T1, recombinant human mGluR2 (Homo sapiens, UniProt Q14416)
# T1 construct: expressed in transfected cells
# Experiment: FLIPR Ca2+ mobilization assay, potentiation of mGluR2
# Type: cell-based
# Conditions: potentiation with EC20 glutamate (900 nM); CHO dhfr- cells expressing human mGluR2 and Gα16
# Experimental: Potencies are determined as follows. The compounds of the present invention may be tested in a fluorescence laser imaging plate reader (FLIPR) based assay. This assay is a common functional assay to monitor Ca^2+ mobilization in whole cells expressing recombinant receptor coupled with a promiscuous G-protein. CHO dhfr-cells stably expressing recombinant human mGluR2 and Gα16 loaded with Fluo-4 AM (Invitrogen, Carlsbad Calif.) are treated with varying concentrations of compounds and the Ca^2+ response is monitored on a FLIPR384 (Molecular Devices, Sunnydale Calif.) for agonist activity. The potentiation response is monitored after a subsequent addition of an EC20 concentration of glutamate (900 nM). The maximum calcium response at each concentration of compound for agonism or potentiation are plotted as dose responses curves fitted with a four parameters logistic equation giving EC50 and Hill coefficient using the iterative non linear curve fitting software program.
# T1 sequence (Q14416 19-872): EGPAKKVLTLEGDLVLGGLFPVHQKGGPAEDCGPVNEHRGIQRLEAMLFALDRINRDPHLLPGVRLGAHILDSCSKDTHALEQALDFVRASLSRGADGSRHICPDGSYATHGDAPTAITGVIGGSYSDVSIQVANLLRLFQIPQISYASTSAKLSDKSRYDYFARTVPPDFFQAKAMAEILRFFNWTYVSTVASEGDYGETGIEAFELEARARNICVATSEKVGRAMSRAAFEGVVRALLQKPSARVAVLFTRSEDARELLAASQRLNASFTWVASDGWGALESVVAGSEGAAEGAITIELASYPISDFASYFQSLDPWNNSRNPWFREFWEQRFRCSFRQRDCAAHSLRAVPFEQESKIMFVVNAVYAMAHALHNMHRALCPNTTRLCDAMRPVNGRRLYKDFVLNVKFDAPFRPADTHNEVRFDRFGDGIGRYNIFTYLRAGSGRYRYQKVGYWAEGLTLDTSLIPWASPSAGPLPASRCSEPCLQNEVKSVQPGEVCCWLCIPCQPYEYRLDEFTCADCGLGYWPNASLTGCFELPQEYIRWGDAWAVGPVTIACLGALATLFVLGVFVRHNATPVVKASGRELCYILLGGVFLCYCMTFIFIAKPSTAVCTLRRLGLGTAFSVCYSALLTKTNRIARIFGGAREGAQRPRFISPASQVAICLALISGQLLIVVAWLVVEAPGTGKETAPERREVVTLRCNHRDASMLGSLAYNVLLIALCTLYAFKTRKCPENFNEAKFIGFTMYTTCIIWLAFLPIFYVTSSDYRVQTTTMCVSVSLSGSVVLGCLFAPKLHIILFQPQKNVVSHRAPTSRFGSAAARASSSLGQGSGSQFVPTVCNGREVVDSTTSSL
row,SMILES,EC50 [nM]
1,"CN1C(=O)CN(Cc2ccc(-c3ccc4c(nnn4CC4CC4)c3C(F)(F)F)c(F)n2)C1=O [Example 1, 1-({5-[1-(Cyclopropylmethyl)-4-(trifluoromethyl)-1H-benzotriazol-5-yl]-6-fluoropyridin-2-yl}methyl)-3-methylimidazolidine-2,4-dione]",17.3
2,"CN1C(=O)CN(Cc2ccc(-c3ccc4c(nnn4CC4CC4)c3C(F)(F)F)cc2)C1=O [Example 2, 1-{4-[1-(Cyclopropylmethyl)-4-(trifluoromethyl)-1H-benzotriazol-5-yl]benzyl}-3-methylimidazolidine-2,4-dione]",5.8
3,"O=C1CN(Cc2ccc(-c3ccc4c(nnn4CC4CC4)c3C(F)(F)F)cc2)C(=O)N1 [Example 4, 1-{4-[1-(Cyclopropylmethyl)-4-(trifluoromethyl)-1H-benzotriazol-5-yl]benzyl}imidazolidine-2,4-dione]",9.21
4,"C[C@H](O)C(=O)NCc1ccc(-c2ccc3c(nnn3CC3CC3)c2C(F)(F)F)cc1 [Example 5, (2S)—N-{4-[1-(Cyclopropylmethyl)-4-(trifluoromethyl)-1H-benzotriazol-5-yl]benzyl}-2-hydroxypropanamide]",59.1
5,"Cn1c(=O)[nH]n(Cc2ccc(-c3ccc4c(nnn4CC(C)(C)C)c3Br)cc2)c1=O [Example 7, 1-{4-[4-Bromo-1-(2,2-dimethylpropyl)-1H-benzotriazol-5-yl]benzyl}-4-methyl-1,2,4-triazolidine-3,5-dione]",532
6,"CC(C)Cn1nnc2c(Br)c(-c3ccc(CN4CC(=O)N(C)C4=O)cc3)ccc21 [Example 8, 1-{4-[4-Bromo-1-(2-methylpropyl)-1H-benzotriazol-5-yl]benzyl}-3-methylimidazolidine-2,4-dione]",3
7,"CC(C)Cn1nnc2c(C(F)(F)F)c(-c3ccc(CN4CC(=O)N(C)C4=O)cc3)ccc21 [Example 9, 3-Methyl-1-{4-[1-(2-methylpropyl)-4-(trifluoromethyl)-1H-benzotriazol-5-yl]benzyl}imidazolidine-2,4-dione]",6.1
8,"CN1C(=O)CN(Cc2ccc(-c3ccc4c(nnn4CC4CC4)c3Br)cc2)C1=O [Example 10, 1-{4-[4-Bromo-1-(cyclopropylmethyl)-1H-benzotriazol-5-yl]benzyl}-3-methylimidazolidine-2,4-dione]",5.3
9,"CSc1c(-c2ccc(CN3CC(=O)N(C)C3=O)c(F)c2)ccc2c1nnn2CC1CC1 [Example 15, 1-{4-[1-(Cyclopropylmethyl)-4-(methylsulfanyl)-1H-benzotriazol-5-yl]-2-fluorobenzyl}-3-methylimidazolidine-2,4-dione]",6.6
10,"CN1C(=O)CN(Cc2ccc(-c3ccc4c(nnn4CC4CC4)c3S(C)(=O)=O)cc2F)C1=O [Example 16, 1-{4-[1-(Cyclopropylmethyl)-4-(methylsulfonyl)-1H-benzotriazol-5-yl]-2-fluorobenzyl}-3-methylimidazolidine-2,4-dione]",245
11,"CN1C(=O)CN(Cc2ccc(-c3ccc4c(nnn4CC4CC4)c3[S+](C)[O-])cc2F)C1=O (stereo not shown) [Example 17, 1-{4-[1-(Cyclopropylmethyl)-4-(methylsulfinyl)-1H-benzotriazol-5-yl]-2-fluorobenzyl}-3-methylimidazolidine-2,4-dione]",1250
12,"CN1C(=O)CN(Cc2ccc(-c3ccc4c(nnn4CC4CC4)c3C#N)cc2)C1=O [Example 18, 1-(Cyclopropylmethyl)-5-{4-[(3-methyl-2,4-dioxoimidazolidin-1-yl)methyl]phenyl}-1H-benzotriazole-4-carbonitrile]",39
13,"CCc1c(-c2ccc(CN3CC(=O)N(C)C3=O)cc2)ccc2c1nnn2CC1CC1 [Example 19, 1-{4-[1-(Cyclopropylmethyl)-4-ethyl-1H-benzotriazol-5-yl]benzyl}-3-methylimidazolidine-2,4-dione]",7.8
14,"CN1C(=O)CN(Cc2ccc(-c3ccc4c(nnn4CC4CC4)c3C=O)cc2)C1=O [Example 20, 1-(Cyclopropylmethyl)-5-{4-[(3-methyl-2,4-dioxoimidazolidin-1-yl)methyl]phenyl}-1H-benzotriazole-4-carbaldehyde]",56
15,"CN1C(=O)CN(Cc2ccc(-c3ccc4c(nnn4CC4CC4)c3CO)cc2)C1=O [Example 21, 1-{4-[1-(Cyclopropylmethyl)-4-(hydroxymethyl)-1H-benzotriazol-5-yl]benzyl}-3-methylimidazolidine-2,4-dione]",841
16,"CN1C(=O)CN(Cc2ccc(-c3ccc4c(nnn4CC4CC4)c3CF)cc2)C1=O [Example 22, 1-{4-[1-(Cyclopropylmethyl)-4-(fluoromethyl)-1H-benzotriazol-5-yl]benzyl}-3-methylimidazolidine-2,4-dione]",14
17,"CN1C(=O)CN(Cc2ccc(-c3ccc4c(c3)nnn4CC3CC3)cc2)C1=O [Example 28, 1-{4-[1-(Cyclopropylmethyl)-1H-benzotriazol-5-yl]benzyl}-3-methylimidazolidine-2,4-dione]",196
18,"CN1C(=O)CN(Cc2ccc(-c3ccc4c(nnn4CC4CC4)c3Cl)cc2)C1=O [Example 29, 1-{4-[4-Chloro-1-(cyclopropylmethyl)-1H-benzotriazol-5-yl]benzyl}-3-methylimidazolidine-2,4-dione]",11.4

# Second part, the compound after the results:
row,EC50 [nM],SMILES
1,53,"[N-]=[N+]=NCc1ccc(-c2ccc3c(nnn3CC3CC3)c2Cl)cc1 [Example 37, 5-[4-(Azidomethyl)phenyl]-4-chloro-1-(cyclopropylmethyl)-1H-benzotriazole]"
2,2320,"NCc1ccc(-c2ccc3c(nnn3CC3CC3)c2Cl)cc1 [Example 38, 1-{4-[4-Chloro-1-(cyclopropylmethyl)-1H-benzotriazol-5-yl]phenyl}methanamine]"
3,49,"C[C@@H](O)C(=O)NCc1ccc(-c2ccc3c(nnn3CC3CC3)c2Cl)cc1 [Example 39, (2R)—N-{4-[4-chloro-1-(cyclopropylmethyl)-1H-benzotriazol-5-yl]benzyl}-2-hydroxypropanamide]"
4,11.4,"O=C1CN(Cc2ccc(-c3ccc4c(nnn4CC4CC4)c3Cl)cc2)C(=O)N1 [Example 51, 1-{4-[4-Chloro-1-(cyclopropylmethyl)-1H-benzotriazol-5-yl]benzyl}imidazolidine-2,4-dione]"
5,80,"CC(C)(C)OC(=O)N1CCN(Cc2ccc(-c3ccc4c(nnn4CC4CC4)c3Cl)cc2)CC1 [Example 52, tert-Butyl 4-{4-[4-chloro-1-(cyclopropylmethyl)-1H-benzotriazol-5-yl]benzyl}piperazine-1-carboxylate]"
6,234,"Clc1c(-c2ccc(CN3CCNCC3)cc2)ccc2c1nnn2CC1CC1 [Example 71, 4-Chloro-1-(cyclopropylmethyl)-5-[4-(piperazin-1-ylmethyl)phenyl]-1H-benzotriazole]"
7,30.4,"N#CCC(=O)N1CCN(Cc2ccc(-c3ccc4c(nnn4CC4CC4)c3Cl)cc2)CC1 [Example 72, 3-(4-{4-[4-Chloro-1-(cyclopropylmethyl)-1H-benzotriazol-5-yl]benzyl}piperazin-1-yl)-3-oxopropanenitrile]"
8,124,"CCOC(=O)CNC(=O)NCc1ccc(-c2ccc3c(nnn3CC3CC3)c2Cl)cc1 [Example 83, Ethyl N-({4-[4-chloro-1-(cyclopropylmethyl)-1H-benzotriazol-5-yl]benzyl}carbamoyl)glycinate]"
9,34.9,"O=C1CNC(=O)N1Cc1ccc(-c2ccc3c(nnn3CC3CC3)c2Cl)cc1 [Example 84, 3-{4-[4-Chloro-1-(cyclopropylmethyl)-1H-benzotriazol-5-yl]benzyl}imidazolidine-2,4-dione]"
10,8.9,"CN1CC(=O)N(Cc2ccc(-c3ccc4c(nnn4CC4CC4)c3Cl)cc2)C1=O [Example 85, 3-{4-[4-Chloro-1-(cyclopropylmethyl)-1H-benzotriazol-5-yl]benzyl}-1-methylimidazolidine-2,4-dione]"

# Reference: patent US9139576B2, “Aminomethyl biaryl benzotriazole derivatives” (Merck Sharp & Dohme Corp., priority 2011, dated 2015)
